Test: Ex vivo biodistribution (gamma counter)
Format: in vivo, healthy male C57BL/6 mice
Settings: 2 h post administration
Experimental: For animal injection, the tracer was prepared at high molar activity. Radiolabeling of H4Tetrathiol (10^–2 M in DMSO; 40 μL for imaging, 20 μL for bioD) (or DMSO, for [^197m/gHg]HgCl2 mice) with [^197m/gHg]HgCl2 (imaging: 26.7 MBq total m + g, 62 μL; bioD: 13.04 MBq total m + g, 31 μL) was performed in a mixture of ammonium acetate buffer (1 M; pH 7; 198 μL for imaging or 149 μL for bioD) and 6 M NaOH (72 μL or 38 μL required to achieve a pH of 7.5 after addition of activity, for imaging or BioD labeling, respectively). The reaction was allowed to stand for 1 h at 37 °C and quantitative (> 99%) non-isolated percentage radiochemical yield (%RCY) was confirmed via the iTLC methods mentioned above. Further, 100 µL of the reaction was diluted with 50 µL of PBS Tween-20 (0.01 M sodium phosphate, 0.15 M NaCl, 0.05% Tween-20) for imaging mice, or 50 µL of the reaction was diluted with 100 µL of PBS Tween-20 for BioD mice. The tracers were prepared immediately before injection to avoid radiolysis and minimize the tracer loss to any surfaces due to its lipophilicity. The injected doses of each isomer, ^197mHg and ^197gHg, were quantified by measuring an aliquot of known volume of each tracer preparation via HPGe gamma spectroscopy and decay corrected for time of injection using the Eqs. (1) and (2).
The study was conducted in compliance with the guidelines set by the Canadian Council on Animal Care (CCAC) and approved by the Animal Care Committee (ACC) at the University of British Columbia (A20-0132). A total of eight healthy male C57BL/6 mice weighing approximately 30 g for group 1 and 25 g for group 2 were used in the study. The mice were divided into two experimental groups: group 1 (n = 4) received free [^197m/gHg]HgCl2, while group 2 (n = 4) received [^197m/gHg]Hg-Tetrathiol. Within each group, one mouse was allocated for imaging, while the rest were designated for ex vivo biodistribution analysis. For SPECT imaging, the designated mice were anesthetized using isoflurane via a precision vaporizer. […] Once anesthetized, each imaging mouse received an intravenous (IV) injection via the lateral tail vein of 150 μL of [^197m/gHg]HgCl2 (0.492 MBq ^197mHg + 3.171 MBq ^197gHg) or [^197m/gHg]Hg-Tetrathiol (0.899 MBq ^197mHg + 4.230 MBq ^197gHg) in PBS Tween-20 (0.01 M Na Phosphate, 0.15 M NaCl, 0.05% Tween-20).
Mice received an IV injection of [^197m/gHg]HgCl2 (0.275 MBq ^197mHg + 1.758 MBq ^197gHg, 150 μL) or [^197m/gHg]Hg-Tetrathiol (0.384 MBq ^197mHg + 1.733 MBq ^197gHg, 150 μL) (n = 3 per group) via the lateral tail vein using a Tailveiner restrainer. After the injection, the mice were returned to their experimental cages and allowed unrestricted movement. Biodistribution studies were conducted 2 h after administration. Mice were humanely euthanized with an overdose of isoflurane followed by cardiac puncture to collect blood pool activity. The organs of interest were fully extracted, cleaned of blood without rinsing, weighed, and analysed for radioactivity using a calibrated gamma counter with the 55–93 keV energy window for ^197gHg and the 110–160 keV energy window for ^197mHg (Packard Cobra II, Perkin Elmer, Waltham, MA, USA). The stomach and intestines were carefully cleaned prior to analysis to remove residual contents. For tissues and fluids that could not be fully removed (muscle, blood and bone) activity values were extrapolated based on standardised organ weights for age- and sex-matched mice tables to ensure accurate normalization (Davies and Morris [1993]; Foster et al. [2014]). The stomach and whole intestines were cleaned before analysis. The radioactivity measurements were decay corrected for time of injection using the Eqs. (1) and (2). The results are reported as the percentage of the injected activity per gram of tissue (%IA/g) and percentage of the injected activity per tissue (%IA/organ).

For `[Cl][Hg][Cl]` [[^197m/gHg]HgCl2], the “Animal 4 (%IA/g) g: kidneys” value (Hg-197g) was 120 %IA/g, the “Animal 4 (%IA/g) g: large intestine” value (Hg-197g) was 2.62 %IA/g and the “Animal 4 (%IA/g) g: liver” value (Hg-197g) was 4.99 %IA/g. For the same compound, the “Animal 4 (%IA/g) g: lungs” value (Hg-197g) was 3.08 %IA/g, the “Animal 4 (%IA/g) g: muscle” value (Hg-197g) was 0.53 %IA/g and the “Animal 4 (%IA/g) g: pancreas” value (Hg-197g) was 1.46 %IA/g. The “Animal 4 (%IA/g) g: small intestine” value (Hg-197g) was 2.62 %IA/g, the “Animal 4 (%IA/g) g: spleen” value (Hg-197g) was 3.58 %IA/g and the “Animal 4 (%IA/g) g: stomach” value (Hg-197g) was 1.76 %IA/g. The “Animal 4 (%IA/g) g: tail” value (Hg-197g) was 3.76 %IA/g, the “Animal 4 (%IA/g) g: urine” value (Hg-197g) was 3.49 %IA/g and the “Average (%IA/Organ): bladder” value (Hg-197g) was 0.06 %IA/Organ. The “Average (%IA/Organ): blood” value (Hg-197g) was 5.81 %IA/Organ, the “Average (%IA/Organ): bone” value (Hg-197g) was 4.16 %IA/Organ and the “Average (%IA/Organ): brain” value (Hg-197g) was 0.05 %IA/Organ. The “Average (%IA/Organ): feces” value (Hg-197g) was 0.05 %IA/Organ, the “Average (%IA/Organ): heart” value (Hg-197g) was 0.25 %IA/Organ and the “Average (%IA/Organ): kidneys” value (Hg-197g) was 48.31 %IA/Organ. For the same compound, the “Average (%IA/Organ): large intestine” value (Hg-197g) was 0.57 %IA/Organ, the “Average (%IA/Organ): liver” value (Hg-197g) was 7.78 %IA/Organ and the “Average (%IA/Organ): lungs” value (Hg-197g) was 0.58 %IA/Organ. The “Average (%IA/Organ): muscle” value (Hg-197g) was 8.08 %IA/Organ, the “Average (%IA/Organ): pancreas” value (Hg-197g) was 0.25 %IA/Organ and the “Average (%IA/Organ): small intestine” value (Hg-197g) was 0.70 %IA/Organ. The “Average (%IA/Organ): spleen” value (Hg-197g) was 0.31 %IA/Organ, the “Average (%IA/Organ): stomach” value (Hg-197g) was 0.20 %IA/Organ and the “Average (%IA/Organ): tail” value (Hg-197g) was 2.59 %IA/Organ. For the same compound, the “Average (%IA/Organ): urine” value (Hg-197g) was 0.65 %IA/Organ, the “Average Hg-197g (%IA/g): bladder” value (Hg-197g) was 2.10 %IA/g and the “Average Hg-197g (%IA/g): blood” value (Hg-197g) was 3.53 %IA/g. The “Average Hg-197g (%IA/g): bone” value (Hg-197g) was 1.94 %IA/g, the “Average Hg-197g (%IA/g): brain” value (Hg-197g) was 0.13 %IA/g and the “Average Hg-197g (%IA/g): feces” value (Hg-197g) was 1.29 %IA/g. For the same compound, the “Average Hg-197g (%IA/g): heart” value (Hg-197g) was 1.79 %IA/g, the “Average Hg-197g (%IA/g): kidneys” value (Hg-197g) was 111.17 %IA/g and the “Average Hg-197g (%IA/g): large intestine” value (Hg-197g) was 2.77 %IA/g. The “Average Hg-197g (%IA/g): liver” value (Hg-197g) was 5.03 %IA/g, the “Average Hg-197g (%IA/g): lungs” value (Hg-197g) was 3.83 %IA/g and the “Average Hg-197g (%IA/g): muscle” value (Hg-197g) was 0.63 %IA/g. The “Average Hg-197g (%IA/g): pancreas” value (Hg-197g) was 1.48 %IA/g, the “Average Hg-197g (%IA/g): small intestine” value (Hg-197g) was 3.17 %IA/g and the “Average Hg-197g (%IA/g): spleen” value (Hg-197g) was 3.93 %IA/g. The “Average Hg-197g (%IA/g): stomach” value (Hg-197g) was 1.87 %IA/g, the “Average Hg-197g (%IA/g): tail” value (Hg-197g) was 5.12 %IA/g and the “Average Hg-197g (%IA/g): urine” value (Hg-197g) was 4.08 %IA/g. The “Animal 1 (%IA/g) m: bladder” value (Hg-197m) was 1.81 %IA/g, the “Animal 1 (%IA/g) m: blood” value (Hg-197m) was 8.43 %IA/g and the “Animal 1 (%IA/g) m: bone” value (Hg-197m) was 3.43 %IA/g. For the same compound, the “Animal 1 (%IA/g) m: brain” value (Hg-197m) was 0.27 %IA/g, the “Animal 1 (%IA/g) m: feces” value (Hg-197m) was 1.31 %IA/g and the “Animal 1 (%IA/g) m: heart” value (Hg-197m) was 3.85 %IA/g. The “Animal 1 (%IA/g) m: large intestine” value (Hg-197m) was 5.33 %IA/g, the “Animal 1 (%IA/g) m: lungs” value (Hg-197m) was 8.68 %IA/g and the “Animal 1 (%IA/g) m: muscle” value (Hg-197m) was 1.38 %IA/g. For the same compound, the “Animal 1 (%IA/g) m: pancreas” value (Hg-197m) was 2.69 %IA/g, the “Animal 1 (%IA/g) m: small intestine” value (Hg-197m) was 6.99 %IA/g and the “Animal 1 (%IA/g) m: spleen” value (Hg-197m) was 8.59 %IA/g. The “Animal 1 (%IA/g) m: stomach” value (Hg-197m) was 3.64 %IA/g, the “Animal 1 (%IA/g) m: tail” value (Hg-197m) was 16.30 %IA/g and the “Animal 1 (%IA/g) m: urine” value (Hg-197m) was 8.15 %IA/g. The “Animal 2 (%IA/g) m: bladder” value (Hg-197m) was 4.08 %IA/g and the “Animal 2 (%IA/g) m: blood” value (Hg-197m) was 5.94 %IA/g.
